Columns and labels:
[1] = Solubility of compounds in 50 mM phosphate buffer pH 7.4 by HPLC; format: physicochemical
Procedure: Solubility is calculated using the following formula: […]

[2] = molecular target: erythrocyte KCa3.1 channels (Homo sapiens (Human), UniProt O15554); assay: Erythrocyte KCa3.1 assay; format: cell-based; conditions: human erythrocytes, A23187-activated, 37° C.; read-out: RBC K (in vitro) Human IC50
Procedure: Human blood was drawn from healthy human volunteers in a standard heparinized blood sampling vial (Vacutainer, Li/heparin, BD Bioscience, Plymouth, UK). The erythrocytes were packed by centrifugation, and the plasma and buffy coat were removed by aspiration. Erythrocytes were washed three times in the experimental salt solution and then stored at 0° C. until use. Blood samples from NMRI mice or from Wistar rats were treated similarly. The methodological principle is outlined in Macey et al. (1978) and further described in Strøbæk et al. (2013). Activation of the erythrocyte KCa3.1 channels were obtained by addition of the Ca^2+ ionophore A23187, which causes synchronized hyperpolarization, which is reported as a CCCP-mediated shift in the unbuffered extracellular pH of the erythrocyte suspension. Standard procedure: 3 mL unbuffered experimental salt solution (in mM: 2 KCl, 154 NaCl, 0.05 CaCl2) was heated to 37° C. with stirring. Packed erythrocytes were added (50 μL, final cytocrit 1.5%), and the extracellular pH (pHo) followed with a glass/calomel (pHG200-8/REF200, Radiometer, Denmark) electrode pair. CCCP (3 μL, final concentration 20 μM) was added followed by varying concentrations of test compounds (DMSO concentration constant). After pH stabilization at ˜7.2, A23187 (3 μL, final concentration 0.33 μM) was added to initiate the experiment. After the peak hyperpolarization was attained, the intracellular pH (pHi constant during the experiment) was found by haemolysing the erythrocytes via addition of 100 μL of Triton-X100.
The erythrocyte membrane potential, Vm, was calculated according to: Vm=−61.5 mV×(pHo−pHi) and the fractional remaining Ca^2+-activated K^+-conductance at the concentration C of blocker, fGK(C), was calculated from
[formula] where the K^+ equilibrium potential EK=−107 mV, the Cl^− equilibrium potential ECl=−12 mV and the Vm(0) and Vm(C) are the peak hyperpolarizations in the control and in the presence of a concentration of C of blocker respectively.
IC50 values for compounds were calculated from a plot of fGK(C) versus C by a fit to the Hill equation, using a custom program written in the IGOR-Pro software (WaveMetrics, Lake Oswego, OR, USA). All IC50-values are reported in μM.

[3] = 50 mM potassium phosphate buffer pH 7.40, 16 hr at ~25° C., 1600 μM incubation concentration

Structure (SMILES)	IC50 [2]	also measured
COC(=O)N(C[C@@H]1CCCN1C)C1(c2ccc(F)c(C(F)(F)F)c2)CC1 [[27], Methyl (S)-(1-(4-fluoro-3-(trifluoromethyl)phenyl)cyclopropyl) ((1-methylpyrrolidin-2-yl)methyl) carbamate]	300 nM	Measured Solubility in pH 7.4 phosphate buffer (mg/ml) [1, 3]: 0.5918 mg/ml; Measured Solubility in pH 7.4 phosphate buffer (μM) (rounded) [1, 3]: 1600 μM
CCOC(=O)N(C[C@@H]1CCCN1C)C1(c2ccc(F)c(C(F)(F)F)c2)CC1 [[35], Ethyl (S)-(1-(4-fluoro-3-(trifluoromethyl)phenyl)cyclopropyl)((1-methylpyrrolidin-2-yl)methyl) carbamate]	110 nM	Measured Solubility in pH 7.4 phosphate buffer (mg/ml) [1, 3]: 0.5679 mg/ml; Measured Solubility in pH 7.4 phosphate buffer (μM) (rounded) [1, 3]: 1500 μM
COC(=O)N(C[C@@H]1CCN1)C1(c2ccc(F)c(C(F)(F)F)c2)CC1 [[53], Methyl (S)-(azetidin-2-ylmethyl)(1-(4-fluoro-3-(trifluoromethyl)phenyl)-cyclopropyl)carbamate]	360 nM	Measured Solubility in pH 7.4 phosphate buffer (μM) (rounded) ([1]; 16 h, pH 7.4): 1700 μM
COC(=O)N(C[C@H]1CCCN1C)C1(c2ccc(F)c(C(F)(F)F)c2)CC1 [[31], Methyl (R)-(1-(4-fluoro-3-(trifluoromethyl)phenyl)cyclopropyl)((1-methylpyrrolidin-2-yl)methyl)carbamate]	81 nM	Measured Solubility in pH 7.4 phosphate buffer (μM) (rounded) ([1]; 16 h, pH 7.4): 1500 μM
CS(=O)(=O)N(C[C@@H]1CCCN1)C1(c2ccc(F)c(C(F)(F)F)c2)CC1 [[36], (S)—N-(1-(4-fluoro-3-(trifluoromethyl)phenyl)cyclopropyl)-N-(pyrrolidin-2-ylmethyl) methanesulfonamide]	320 nM	Measured Solubility in pH 7.4 phosphate buffer (mg/ml) [1, 3]: 0.3218 mg/ml; Measured Solubility in pH 7.4 phosphate buffer (μM) (rounded) [1, 3]: 800 μM
COC(=O)N(C[C@@H]1COCCN1)C1(c2ccc(F)c(C(F)(F)F)c2)CC1 [[39], Methyl (R)-(1-(4-fluoro-3-(trifluoromethyl)phenyl)cyclopropyl)(morpholin-3-ylmethyl) carbamate]	420 nM	
COC(=O)N(C[C@@H]1COCCN1C)C1(c2ccc(F)c(C(F)(F)F)c2)CC1 [[40], Methyl (R)-(1-(4-fluoro-3-(trifluoromethyl)phenyl)cyclopropyl)((4-methylmorpholin-3-yl)methyl)carbamate]	270 nM	
COC(=O)N(CC(C)(C)N)C1(c2cc(Cl)cc(Cl)c2)CC1 [[11], Methyl (2-amino-2-methylpropyl)(1-(3,5-dichlorophenyl)cyclopropyl)carbamate]	300 nM	
COC(=O)N(CC(C)(C)N)C1(c2cc(C(F)(F)F)c(F)cn2)CC1 [[17], Methyl (2-amino-2-methylpropyl)(1-(5-fluoro-4-(trifluoromethyl)pyridin-2-yl)cyclopropyl) carbamate]	400 nM	Measured Solubility in pH 7.4 phosphate buffer (mg/ml) [1, 3]: 0.5636 mg/ml; Measured Solubility in pH 7.4 phosphate buffer (μM) (rounded) [1, 3]: 1500 μM
O=C1CSc2ccccc2N1Cc1cccc(C(F)(F)F)c1 [NS6180, 4-[[3-(Trifluoromethyl)-phenyl]methyl]-2H-1,4-benzothiazin-3(4H)-one, reference compound]		Measured Solubility in pH 7.4 phosphate buffer (mg/ml) ([1]; 16 h, pH 7.4): 0.0009 mg/ml
COC(=O)N(C[C@@]1(C)CCCN1)C1(c2ccc(F)c(C(F)(F)F)c2)CC1 [[46], Methyl (R)-(1-(4-fluoro-3-(trifluoromethyl)phenyl)cyclopropyl)((2-methylpyrrolidin-2-yl)methyl)carbamate]	100 nM	
COC(=O)N(CC(C)(C)N)C1(c2cccc(C(F)(F)F)c2)CC1 [[15], Methyl (2-amino-2-methylpropyl)(1-(3-(trifluoromethyl)phenyl)cyclopropyl)carbamate]	140 nM	
COC(=O)N(C[C@H]1CCCN1)C1(c2ccc(F)c(OC(F)(F)F)c2)CC1 [[29], Methyl (R)-(1-(4-fluoro-3-(trifluoromethoxy)phenyl)cyclopropyl)(pyrrolidin-2-ylmethyl)carbamate]	330 nM	
COC(=O)N(C[C@]1(C)CCCN1)C1(c2ccc(F)c(C(F)(F)F)c2)CC1 [[50], Methyl (S)-(1-(4-fluoro-3-(trifluoromethyl)phenyl)cyclopropyl)((2-methylpyrrolidin-2-yl)methyl)carbamate]	150 nM	
N[C@H]1CCC[C@H]1NC1(c2ccc(F)c(C(F)(F)F)c2)CC1 [[52], (1R,2S)—N1-(1-(4-fluoro-3-(trifluoromethyl)phenyl)cyclopropyl)-cyclopentane-1,2-diamine]	93 nM	
COC(=O)N(CC(C)(C)NC(C)=O)C1(c2ccc(F)c(C(F)(F)F)c2)CC1 [[24], Methyl (2-acetamido-2-methylpropyl)(1-(4-fluoro-3-(trifluoromethyl)phenyl)cyclopropyl)carbamate]	310 nM	

Structure (SMILES)	IC50 [2]	also measured
COC(=O)N(CC(C)(C)N)C1(c2cccc(Br)c2)CC1 [[12], Methyl (2-amino-2-methylpropyl)(1-(3-bromophenyl)cyclopropyl)carbamate]	400 nM	
COC(=O)N(CC(C)(C)N)C1(c2cccc(Cl)c2)CC1 [[13], Methyl (2-amino-2-methylpropyl)(1-(3-chlorophenyl)cyclopropyl)carbamate]	440 nM	
COC(=O)N(C1CNC1)C1(c2ccc(F)c(C(F)(F)F)c2)CC1 [[5], Methyl azetidin-3-yl(1-(4-fluoro-3-(trifluoromethyl)phenyl)cyclopropyl)carbamate]	310 nM	
CN1CCC[C@H]1CN(C1(c2ccc(F)c(C(F)(F)F)c2)CC1)S(C)(=O)=O [[37], (S)—N-(1-(4-fluoro-3-(trifluoromethyl)phenyl)cyclopropyl)-N-((1-methylpyrrolidin-2-yl)methyl)methanesulfonamide]	140 nM	
N[C@H]1CCC[C@@H]1NC1(c2ccc(F)c(C(F)(F)F)c2)CC1 [[51], (1S, 2S)—N1-(1-(4-fluoro-3-(trifluoromethyl)phenyl)cyclopropyl)-cyclopentane-1,2-diamine]	410 nM	
COC(=O)N1CC(N(C(=O)OC)C2(c3ccc(F)c(C(F)(F)F)c3)CC2)C1 [[4], Methyl 3-((1-(4-fluoro-3-(trifluoromethyl)phenyl)cyclopropyl) (methoxycarbonyl)amino)azetidine-1-carboxylate]	71 nM	
COC(=O)N(CC1CCN1)C1(c2ccc(F)c(C(F)(F)F)c2)CC1 (centres unmarked) [[26], Methyl (azetidin-2-ylmethyl)(1-(4-fluoro-3-(trifluoromethyl)phenyl)cyclopropyl)carbamate]	210 nM	
COC(=O)N(CC1CCN1C)C1(c2ccc(F)c(C(F)(F)F)c2)CC1 (centres unmarked) [[30], Methyl (1-(4-fluoro-3-(trifluoromethyl)phenyl)cyclopropyl)((1-methylazetidin-2-yl)methyl)carbamate]	170 nM	
Fc1ccc(C2(N(CC3CC3)C3CNC3)CC2)cc1C(F)(F)F [[6], N-(cyclopropylmethyl)-N-(1-(4-fluoro-3-(trifluoromethyl)phenyl)cyclopropyl)azetidin-3-amine]	190 nM	
CC(C)(N)CN(C1(c2ccc(F)c(C(F)(F)F)c2)CC1)S(C)(=O)=O [[21], N-(2-amino-2-methylpropyl)-N-(1-(4-fluoro-3-(trifluoromethyl)phenyl)cyclopropyl)methanesulfonamide]	75 nM	
COC(=O)N(CC1CCN1)C1(c2ccc(F)c(OC(F)(F)F)c2)CC1 (centres unmarked) [[32], Methyl (azetidin-2-ylmethyl)(1-(4-fluoro-3-(trifluoromethoxy)phenyl)cyclopropyl)carbamate]	270 nM	
NC1(CNC2(c3ccc(F)c(C(F)(F)F)c3)CC2)CC1 [[47], N-((1-aminocyclopropyl)methyl)-1-(4-fluoro-3-(trifluoromethyl)phenyl)cyclopropan-1-amine]	220 nM	
CC(C)(N)CN(C1CCC1)C1(c2cccc(C(F)(F)F)c2)CC1 [[18], N1-cyclobutyl-2-methyl-N1-(1-(3-(trifluoromethyl)phenyl)cyclopropyl)propane-1,2-diamine]	18 nM	
COC(=O)N(CCN)C1(c2ccc(F)c(C(F)(F)F)c2)CC1 [[7], Methyl (2-aminoethyl)(1-(4-fluoro-3-(trifluoromethyl)phenyl)cyclopropyl)carbamate]	480 nM	
COC(=O)N(CC(C)(C)NO)C1(c2ccc(F)c(C(F)(F)F)c2)CC1 [[33], Methyl (1-(4-fluoro-3-(trifluoromethyl)phenyl)cyclopropyl)(2-(hydroxyamino)-2-methylpropyl)carbamate]	120 nM	
